{"source": "paper PMC8539749", "about": "(Viruses, 2021)", "key": {"[1]": {"tested_on": "SFTSV", "assay_type": "cell-based, SFTSV HB29 strain"}, "[2]": {"tested_on": "SFTSV", "assay_type": "cell-based, SFTSV HB29 strain", "remark": "listed apart in the source"}, "[3]": {"tested_on": "SFTSV", "experiment": "microbe, parasite or virus in culture", "assay_type": "cell-based, SFTSV HB29 strain", "details": "for IC50: Severe fever with thrombocytopenia syndrome virus"}, "[4]": {"tested_on": "SFTSV", "assay_type": "cell-based, SFTSV HB29 strain", "remark": "listed apart in the source"}, "[5]": {"tested_on": "SFTSV", "details": "cited from earlier work"}, "[6]": {"tested_on": "SFTSV Gc glycoprotein", "details": "cited from earlier work"}}, "note": "Entries after “also recorded” stand apart in the source; their conditions may differ. Where two headings read alike, the source gives them in different places. Positions of bridges follow the written chain, without caps; N, C: chain ends. Residues, ends and D or L forms follow the SMILES beside them."}
{"smiles": "N=C(N)NCCC[C@@H]1NC(=O)[C@@H](NC(=O)[C@@H](N)CCCCN)CCCCNC(=O)[C@H](CO)NC(=O)CNC(=O)[C@H](Cc2ccccc2)NC(=O)CNC1=O", "note": "[HKU-P1] (H-KKRGFGS; lactam 2-C)", "values": [{"measurement": "SFTSV-NP expression (immunofluorescence)", "setting": "[1]", "value": "markedly reduced"}, {"measurement": "viral load reduction, post-infection group", "setting": "[2]", "value": "no significant viral load reduction"}, {"measurement": "viral load reduction, pre-infection group", "setting": "[2]", "value": "no significant viral load reduction"}, {"measurement": "combination effect (in words)", "setting": "[3]", "value": "synergistic antiviral effects in vitro; also recorded: consistently synergistic with favipiravir at different concentrations"}, {"measurement": "anti-SFTSV activity (in words)", "setting": "[4]", "value": "best anti-SFTSV activity; also recorded: displayed anti-SFTSV effects"}, {"measurement": "dose dependence of viral load reduction", "setting": "[4]", "value": "reduced SFTSV viral load in a dose-dependent manner"}, {"measurement": "reduction in SFTSV viral RNA load", "setting": "[4]", "value": "> 50", "unit": "%"}]}
{"smiles": "NC(=O)c1nc(F)c[nH]c1=O", "note": "[Favipiravir]", "values": [{"measurement": "IC50", "setting": "[3]; Huh-7, read-out: Favipiravir IC50, alone", "value": "1.25 ± 0.101", "unit": "µg/mL"}, {"measurement": "IC50", "setting": "[3]; Huh-7, read-out: Favipiravir IC50, with HKU-P1 62.5 μg/mL", "value": "0.979 ± 0.194", "unit": "µg/mL"}, {"measurement": "IC50", "setting": "[3]; Huh-7, read-out: Favipiravir IC50, with HKU-P1 125 μg/mL", "value": "0.864 ± 0.132", "unit": "µg/mL"}, {"measurement": "IC50", "setting": "[3]; Huh-7, read-out: Favipiravir IC50, with HKU-P1 250 μg/mL", "value": "0.805 ± 0.105", "unit": "µg/mL"}, {"measurement": "anti-SFTSV activity in vitro and in vivo", "setting": "[5]", "value": "exhibit in vitro and in vivo activity against SFTSV"}, {"measurement": "broad-spectrum antiviral effects", "setting": "[5]", "value": "broad-spectrum antiviral effects against various RNA viruses, including SFTSV"}]}
{"smiles": "Oc1c(Cl)cc(Cl)c(Cl)c1Cc1c(O)c(Cl)cc(Cl)c1Cl", "note": "[hexachlorophene]", "values": [{"measurement": "likely target", "setting": "[6]", "value": "likely targets the SFTSV Gc glycoprotein"}, {"measurement": "anti-SFTSV activity", "setting": "[5]", "value": "inhibited SFTSV replication at low micromolar concentrations"}]}
